Assay results from US8163705B2, “Glycolipid and use thereof” (Riken, priority 2006, dated 2012).

Experiments:
[1] = system: Splenocytes from a mouse spleen; assay: Experimental Example 1: cytokine (IFN-γ, IL-4) production by mouse splenocytes, sandwich ELISA of culture supernatant; type: cell-based; conditions: mouse splenocytes 2×10^5 cells/well, reagent 40 ng/mL, 72 hours, FIG. 1
Method: Splenocytes from a mouse spleen were prepared using an RPMI1640 culture broth (produced by Sigma) containing 10% Fetal calf serum (FCS) at 2×10^5 cells/well (96-well plate). A reagent was added to this culture broth at a concentration of 40 ng/mL; 3 days later (72 hours later), the cytokine content in the culture supernatant was measured by a sandwich ELISA technique. The test substances used were compound 11, compound 12 and compound 13 as obtained in Examples 1 to 3, with a compound represented by the following formula (a) (α-GalCer, hereinafter referred to as “compound a”) used as the comparator.
(§1) These findings confirm that the compounds of the present invention are effective as therapeutic drugs for pathologic conditions that can be ameliorated by IL-4.

[2] = system: Splenocytes taken out from a mouse spleen; assay: Experimental Example 2: cytokine (IFN-γ, IL-4) production by mouse splenocytes, sandwich ELISA of culture supernatant; type: cell-based; conditions: reagent 20 ng/mL, 48 hours, FIG. 2; for IFN-γ production amount and IL-4 production amount (cytokine production pattern): mouse splenocytes 2×10^5 cells/well, culture supernatant; for IL-4-predominant cytokine production compared with compound b (OCH): mouse splenocytes
Method: Splenocytes taken out from a mouse spleen were prepared using an RPMI1640 culture broth (produced by Sigma) containing 10% Fetal calf serum (FCS) at 2×10^5 cells/well (96-well plate). A reagent was added to this culture broth at a concentration of 20 ng/mL; 2 days later (48 hours later), the cytokine content in the culture supernatant was measured by a sandwich ELISA technique. The test substances used were compound 11, compound 12, compound 13 and compound 48 as obtained in Examples 1 to 3 and Reference Example, with compound a and a compound represented by the following formula (b) (OCH, hereinafter referred to as compound b) used as the comparators.
as §1

[3] = system: Splenocytes taken out from a mouse spleen; conditions: stated as known; cited from earlier work

SMILES | IFN-γ production amount and IL-4 production amount (cytokine production pattern) [1] | IFN-γ production amount and IL-4 production amount (cytokine production pattern) [2] | IL-4-predominant cytokine production compared with compound b (OCH) [2] | cytokine production pattern as known for the comparator [3]
CCCCCCCCCCCCCC[C@@H](O)[C@@H](O)[C@H](CO[C@H]1O[C@H](CO)[C@H](O)[C@H](O)[C@H]1O)NS(=O)(=O)c1ccc(C)cc1 [compound 11, (2S,3S,4R)-1-(α-D-galactopyranosyloxy)-2-(p-toluenesulfonylamino)-3,4-octadecanediol] | IL-4-predominant cytokine production pattern | IL-4-predominant cytokine production pattern with smaller amounts of IFN-γ produced | capable of inducing IL-4-predominant cytokine production to higher extents than compound b | –
CCCCCCCCCCCCCC[C@@H](O)[C@@H](O)[C@H](CO[C@H]1O[C@H](CO)[C@H](O)[C@H](O)[C@H]1O)NS(=O)(=O)c1ccccc1C [compound 12, (2S,3S,4R)-1-(α-D-galactopyranosyloxy)-2-(o-toluenesulfonylamino)-3,4-octadecanediol] | IL-4-predominant cytokine production pattern | IL-4-predominant cytokine production pattern with smaller amounts of IFN-γ produced | capable of inducing IL-4-predominant cytokine production to higher extents than compound b | –
CCCCCCCCCCCCCC[C@@H](O)[C@@H](O)[C@H](CO[C@H]1O[C@H](CO)[C@H](O)[C@H](O)[C@H]1O)NS(=O)(=O)c1cccc(C)c1 [compound 13, (2S,3S,4R)-1-(α-D-galactopyranosyloxy)-2-(m-toluenesulfonylamino)-3,4-octadecanediol] | IL-4-predominant cytokine production pattern | IL-4-predominant cytokine production pattern with smaller amounts of IFN-γ produced | capable of inducing IL-4-predominant cytokine production to higher extents than compound b | –
CCCCCCCCCCCCCCCCS(=O)(=O)N[C@@H](CO[C@H]1O[C@H](CO)[C@H](O)[C@H](O)[C@H]1O)[C@H](O)[C@H](O)CCCCCCCCCCCCCC [compound 48, (2S,3S,4R)-1-(α-D-galactopyranosyloxy)-2-(hexadecanesulfonylamino)-3,4-octadecanediol] | – | IL-4-predominant cytokine production pattern with smaller amounts of IFN-γ produced | capable of inducing IL-4-predominant cytokine production to higher extents than compound b | –
CCCCCCCCCCCCCCCCCCCCCCCCCC(=O)N[C@@H](COC1OC(CO)C(O)C(O)C1O)[C@H](O)[C@H](O)CCCCCCCCCCCCCC (some centres unmarked) [compound a, reference compound] | produced both IFN-γ and IL-4 in large amounts | produced both IFN-γ and IL-4 in large amounts | – | –
CCCCCCCCCCCCCCCCCCCCCCCC(=O)N[C@@H](COC1OC(CO)C(O)C(O)C1O)[C@H](O)[C@H](O)CCCCC (some centres unmarked) [compound b] | – | – | – | induces IL-4-predominant cytokine production
